# Experimental data as given in patent US20080279961A1, “TELOMERE TARGETING AGENTS AS STEM CELLS DIRECTED TREATMENTS” (priority 2007, published 2008).
# How the values were obtained:
# [1] = tested on: HEK293T human embryonic kidney cells; assay: HTCA colony assay on normal embryonic kidney cells; assay type: cell-based
# Method: (§1) In human tumor stem cell assay (HTCA)/clonogenic assay, single cell suspensions from in vivo studies above were washed in medium and passed through sieves and the resulting single cell suspensions seeded into soft agar (n=3 tumors per group) as described by us before (Fiebig et al., 2004). Single cell suspensions of cell lines were prepared by trypsinization from cells growing as monolayers on plastic. Briefly, 5,000 (HEK293T cells), 10,000 (PC3, MCF-7 and UXF1138L cells) or 50,000 (UXF1138L tumor tissue) vital cells were added to 0.2 ml Iscove's medium/20% fetal bovine serum/0.05% gentamycin containing 0.4% agar and plated on top of a base layer consisting of 0.2 ml medium with 0.75% agar. The next day, the agar layers were fed with Isocve's medium and cultures incubated at 37° C., 7% CO2 for approximately 11 days. Vital colonies were stained with 2-(4-iodophenyl)-3-(4-nitrophenyl)-5-phenyltetrazolium chloride (1 mg/ml) 24 hrs before evaluation, and colonies >70 μm were counted with an automated image analysis system (Omincon FAS IV, BIOSYS GmbH, Karben, Germany). Drug effect was assessed as growth inhibitory concentrations 50 and 70% (IC50, IC70). Methylcellulose was used to grow cord blood stem cells instead of soft agar. The seeding density was 20,000 cells/well. Stem cell growth factor supplemented and optimized methylcellulose (Methocult H4434) was purchased from Stem Cell Technologies (Vancouver, CA). Methylcellulose lacking growth factors was used as negative growth control. Statistical significance between treatment groups was evaluated by using the Student T-test.
# To assess RHPS4 effects on normal stem cells, the human embryonic kidney cell line HEK293T was exposed to drug in the MTT and HTCA assays, and tested RHPS4 effects on colony forming units of the mononuclear cell fraction of human cord blood in methyl cellulose (FIG. 2C). The cord blood colony assay was performed with and without colony stimulating growth factors, only methylcellulose containing growth factors grew colonies. […] Additionally, in normal cell types as compared to tumor cells, low and pharmacodynamically relevant concentrations of RHPS4 (0.01 to 1 microM) did induce colony formation (FIG. 2C). To assure that the induction of colony growth by RHPS4 in normal stem cells is reproducible, cord blood from three different individuals and HEK293T cells from different passages were used. Data shown in FIG. 2C represent the mean and standard deviation from three independent experiments. […] However, the plating efficiency (actual number of colonies growing per total number of cells seeded) varied among the experiments and therefore the results are shown as % of control growth. E.g. HEK293T control colony growth ranged from a mean number of 54 to 463 colonies per well, but the least percentage (cut-off level) of growth induction by RHPS4 observed in either, the individual HEK293T or the cord blood experiments, was 150%. […] Instead, at RHPS4 levels that induced colony growth 2.4-fold (1 mircoM), bulk cell growth was inhibited to 60% of control (FIG. 2C).
# [2] = tested on: human cord blood mononuclear cells; assay: methylcellulose colony assay; assay type: cell-based
# Method: The UXF1138L uterus carcinoma cell line was originally established from a patient tumor by Prof. Heiner Fiebig at the University of Freiburg, Germany (Fiebig and Burger, 2001). All animal experiments were conducted under an animal license approved by the German Federal Government (Regierungspräsidium Freiburg) and in compliance with the UKCCCR guidelines on experimental neoplasia (Workman et al., 1998). Six to eight weeks old female thymus aplastic nude mice of NMRI genetic background were used for establishment and serial propagation of the human tumor xenograft from the cell line. PC3 and MCF-7 cells were obtained from American Type Culture Collection, Manassas, Va. The HEK293T human embryonic kidney cell line was a kind gift from Dr. Arun Seth, Sunnybrook Health Sciences Centre, Toronto, CA. Umbellical vein cord blood was freshly obtained from a hospital maternity ward with the consent of the respective patient, specimens were anonymized. The cord blood was collected into a BD Vacutainer CPT™ and the mononuclear fraction isolated by centrifugation following the manufacturers instructions.
# as §1, with “T-test. […]” for “T-test.”
# [3] = tested on: UXF1138L tumor tissue; assay: HTCA/clonogenic growth of in vivo treated xenograft tissue; design: species or system nude mice; conditions: for HTCA growth [%]: control set 100%
# Method: Upon termination of the experiment, which was when tumors reached a volume of 1.5 cm in diameter (day 28), RHPS4 treated tumor tissue and control tumors were excised, minced and digested using a mixture of collagenase (123 U/ml), DNase (375 U/ml), and hyaluronidase (290 U/ml) in RPMI 1640 medium at 37° C. for 3 hrs. All enzymes were purchased from Roche, Indianapolis Ind.). Primary cultures as well as clonogenic growth assays were prepared from the resulting single cell suspensions. Primary cultures were used for analysis of telomere length. In addition, RHPS4 treated tumors (5 mg/kg/d) and control were propagated into new animals for up to three times. The control mouse group was always derived from untreated tumor fragments, but from the same initial passage as were the RHPS4 treated tumors (FIG. 1B).
# as §1
# [4] = tested on: Saos-2, HEK293T, UXF 1138, H460; assay: MTT assay in cell lines with short and long telomeres; assay type: cell-based, human
compound,measurement,setting,value
"COS(=O)(=O)[O-].Cc1cc2c3c([n+](C)c4ccc(F)cc4c3c1)-c1cc(F)ccc1N2C [RHPS4, 3,11-difluoro-6,8,13-trimethyl-8H-quino[4,3,2-kl]acridinium methosulfate]",concentrations that markedly inhibited tumor colony forming units and induced cord blood and HEK293T colony growth,[1],0.1-1 mircoM
same,sensitivity of cord blood and HEK293T colony forming units versus tumor cell colonies,[1],over a log-fold less sensitive
same,"stimulation of growth, number of colonies compared to vehicle","[1]; 0.1 and 1 mircoM RHPS4, HEK293T",doubling to tripling the number of colonies
same,induction of colony growth,"[1]; 1 mircoM RHPS4, HEK293T",2.4 fold
same,drug concentration at which cell kill of normal stem cells was seen,[1]; HEK293T colony forming units,~10 mircoM
same,concentrations inhibiting normal colony formation above those inhibiting tumor cell colony formation,[1]; human embryonic kidney and cord blood vs tumor cells,over 25 fold
same,RHPS4 concentrations that inhibited colony formation,[1]; human embryonic kidney cells,> 1 mircoM
same,least percentage (cut-off level) of growth induction,"[1]; individual HEK293T experiments, % of control growth",≥ 150%
same,"stimulation of growth, number of colonies compared to vehicle","[2]; 0.1 and 1 mircoM RHPS4, cord blood",doubling to tripling the number of colonies
same,RHPS4 concentrations that inhibited colony formation,[2]; cord blood cells,> 1 mircoM
same,drug concentration at which cell kill of normal stem cells was seen,[2]; cord blood colony forming units,~10 mircoM
same,least percentage (cut-off level) of growth induction,"[2]; individual cord blood experiments, % of control growth",≥ 150%
same,inhibition of colony forming units in the same tumor tissues,[3]; Passage 3,54%±6.6
same,HTCA growth [%],[3]; Passage #1,83 ± 2.3%
same,HTCA growth [%],[3]; Passage #2,93 ± 2.3%
same,HTCA growth [%],[3]; Passage #3,54.5 ± 6.6%
same,HTCA growth [%],[3]; Passage #4,44 ± 6.4%
same,clonogenicity of RHPS4 treated tumor tissue in soft agar tumor stem cell assay,[3]; passages 1-4,marked reduction in clonogenicity
same,difference in inhibitory concentrations 50% between cell lines with short and long telomeres,[4],two log-fold
